Source: patent US20070166729A1, “Method and reagent for sequencing” (Hitachi, Ltd., priority 2005, published 2007)

Assays:
[1] = system: luciferase luminescence reaction with ATP produced using PPi; assay: Luminescence from DNA complementary strand synthesis at varying AMP concentrations (FIG. 7); format: biochemical; details: luminescence obtained by adding DNA
From the text: FIG. 7 is a graph showing the relationship between AMP concentrations and signal intensity variations obtained in luciferase luminescence reaction with ATP produced using PPi obtained in DNA complementary strand synthesis. The horizontal axis of the graph indicates AMP concentrations in the reaction solution;
The luminescence obtained by adding DNA (light emitted by PPi obtained in DNA complementary strand synthesis) is generated only in the presence of AMP. […] AMP concentrations giving sufficient luminescence intensity are within the range of 30 to 600 μM. As is obvious, the use of AMP within this concentration range enables sequencing with 0.1 pmol DNA sample.

thermostable PPDK = details: cited from earlier work; for Specificity / Michaelis constants: thermostable PPDK; for Specificity: relative value in brackets, AMP = 100; for Michaelis constants: substrate named in brackets
luciferase [2] = biological target: T1, luciferase (Photinus pyralis, UniProt P08659); assay: APS as substrate for luminescent reaction catalyzed by luciferase; format: biochemical; details: 5 μM APS, reaction solution 100 μl
T1 sequence (P08659 whole entry, species assumed): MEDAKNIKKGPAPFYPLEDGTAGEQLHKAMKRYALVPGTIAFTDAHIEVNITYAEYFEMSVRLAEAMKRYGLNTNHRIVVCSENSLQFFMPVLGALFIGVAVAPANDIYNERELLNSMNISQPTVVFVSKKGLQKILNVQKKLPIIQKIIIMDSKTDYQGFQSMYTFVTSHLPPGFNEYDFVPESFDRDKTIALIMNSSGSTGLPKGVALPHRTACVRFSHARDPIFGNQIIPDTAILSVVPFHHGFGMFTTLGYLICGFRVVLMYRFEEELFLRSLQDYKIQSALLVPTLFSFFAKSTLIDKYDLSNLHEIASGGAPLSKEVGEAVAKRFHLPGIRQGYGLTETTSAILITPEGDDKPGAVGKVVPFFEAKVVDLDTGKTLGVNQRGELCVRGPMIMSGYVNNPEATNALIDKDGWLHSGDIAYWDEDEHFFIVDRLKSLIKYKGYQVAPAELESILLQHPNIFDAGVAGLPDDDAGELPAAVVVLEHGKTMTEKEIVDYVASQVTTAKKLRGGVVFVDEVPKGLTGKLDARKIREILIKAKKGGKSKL
Experimental: Pyrosequencing detects chemiluminescence derived from ATP produced from the reaction of PPi produced in DNA complementary strand synthesis with APS in the presence of ATP sulfurylase. […] For example, APS, though having approximately 1/1000 of reaction efficiency of ATP, reacts as a substrate with luciferase to emit light. To efficiently convert PPi produced in complementary strand synthesis to ATP, approximately 5 μM APS must usually be added to the reaction solution. When the volume of the reaction solution is set to 100 μl, 5 μM APS generates luminescence corresponding to approximately 500 fmol ATP. Thus, DNA sequencing with high precision by pyrosequencing must employ a DNA sample of a picomole level and large amounts of reagents commensurate therewith.
When sequencing is performed with 0.1 pmol DNA sample, which is 1/10 of the DNA sample amount (1 pmol) conventionally used, the amount of background light must be equal to or lower than the amount of chemiluminescence emitted by 0.01 pmol ATP. […] Under the conditions of pyrosequencing, the efficiency of the luminescence process with ATP as a substrate is reduced due to the coexistence of apyrase, an enzyme that degrades dNTP and ATP. […]

luciferase [3] = biological target: T1, luciferase; details: relative to ATP, cited from earlier work
ATP sulfurylase = ATP sulfurylase (Saccharomyces cerevisiae, UniProt P08536); details: read-out: Michaelis constant of reaction for forming the complexes of APS and the enzyme (Km), has been reported; cited from earlier work
ATP sulfurylase, sequence (P08536 whole entry, species assumed): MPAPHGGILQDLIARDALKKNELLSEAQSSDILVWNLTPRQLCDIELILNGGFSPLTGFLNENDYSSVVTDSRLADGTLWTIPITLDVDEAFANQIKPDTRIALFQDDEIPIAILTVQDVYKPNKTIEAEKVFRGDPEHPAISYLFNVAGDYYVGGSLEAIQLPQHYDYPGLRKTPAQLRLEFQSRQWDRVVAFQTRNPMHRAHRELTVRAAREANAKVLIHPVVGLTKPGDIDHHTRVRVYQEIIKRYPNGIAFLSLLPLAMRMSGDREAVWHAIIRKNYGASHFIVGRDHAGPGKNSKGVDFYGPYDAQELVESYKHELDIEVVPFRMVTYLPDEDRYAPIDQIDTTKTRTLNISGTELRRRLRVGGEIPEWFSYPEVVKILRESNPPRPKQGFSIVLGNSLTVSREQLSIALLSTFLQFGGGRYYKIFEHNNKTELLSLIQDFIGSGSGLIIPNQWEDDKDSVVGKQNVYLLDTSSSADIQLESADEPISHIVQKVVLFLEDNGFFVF

thermostable luciferase = details: substrate named in brackets; cited from earlier work

Question: With `Nc1ncnc2c1ncn2[C@@H]1O[C@H](COP(=O)(O)O)[C@@H](O)[C@H]1O` [AMP] as the compound, how does the “AMP concentration at luminescence peak” value [1] read?
Answer: around 100 μM

Question: What about the Km (thermostable PPDK; have been reported, read-out: Michaelis constants (Km) of PPDK and AMP) of the same compound?
Answer: 5 µM

Question: And the Specificity (thermostable PPDK)?
Answer: 100

Question: What about the Michaelis constants (thermostable PPDK) of the same compound?
Answer: 501 µM

Question: Which results are given for `Nc1ncnc2c1ncn2[C@@H]1O[C@H](COP(=O)(O)OS(=O)(=O)O)[C@@H](O)[C@H]1O` [APS, adenosine 5′-phosphosulfate]?
Answer: luminescence corresponding to ATP (luciferase [2]): approximately 500 fmol; reaction efficiency of ATP (fraction) as luciferase substrate (luciferase [3]): approximately 1/1000; activity to ATP as substrate for luminescent reaction catalyzed by luciferase (luciferase [3]; has been reported): 0.6×10^−3; Km (ATP sulfurylase): 0.56 µM

Question: For `Nc1ncnc2c1ncn2[C@@H]1O[C@H](COP(=O)(O)OP(=O)(O)OP(=O)(O)O)[C@@H](O)[C@H]1O` [ATP], which Michaelis constants (thermostable PPDK) is on record?
Answer: 201 µM

Question: With `Nc1ccn([C@@H]2O[C@H](COP(=O)(O)O)[C@@H](O)[C@H]2O)c(=O)n1` [CMP] as the compound, how does the Specificity (thermostable PPDK) read?
Answer: CMP (0), GMP (0)

Question: With `O=C(O)[C@H]1CSC(c2nc3ccc(O)cc3s2)=N1` [D-luciferin] as the compound, how does the Michaelis constants (thermostable luciferase) read?
Answer: 1.5104 M (D-luciferin)

Question: For `Nc1nc2c(ncn2[C@@H]2O[C@H](COP(=O)(O)O)[C@@H](O)[C@H]2O)c(=O)[nH]1` [GMP], which Specificity (thermostable PPDK) is on record?
Answer: CMP (0), GMP (0)

Question: Which Michaelis constants (thermostable PPDK) does the source give for `O=P(O)(O)OP(=O)(O)O` [PPi, pyrophosphate] here?
Answer: 381 µM

Question: Which Specificity (thermostable PPDK) does the source give for `Cc1cn([C@H]2C[C@H](O)[C@@H](COP(=O)(O)O)O2)c(=O)[nH]c1=O` [TMP] here?
Answer: 0

Question: Which Specificity (thermostable PPDK) does the source give for `O=c1ccn([C@@H]2O[C@H](COP(=O)(O)O)[C@@H](O)[C@H]2O)c(=O)[nH]1` [UMP] here?
Answer: 0

Question: For `C=C(OP(=O)(O)O)C(=O)O` [phosphoenolpyruvate], which Michaelis constants (thermostable PPDK) is on record?
Answer: 281 µM
